Experimental findings from patent US20240299486A1, “ADDRESSING INJECTION SITE REACTIONS ASSOCIATED WITH THE ADMINISTRATION OF ELAMIPRETIDE” (STEALTH BIOTHERAPEUTICS INC., priority 2022, published 2024) are described below.

SMILES strings stand for the structures. Entries after “also recorded” stand apart in the source; their conditions may differ.

Assay [1] concerns healthy subjects. Briefly: Phase 1 crossover study: clinically assessed injection site reactions. Conditions: for Clinically assessed Erythema or redness, (%) of Reported Reactions / Clinically assessed Erythema or redness, Number of Reported Reactions / Clinically assessed Induration or swelling, (%) of Reported Reactions / Clinically assessed Induration or swelling, Number of Reported Reactions / Clinically assessed Pain or tenderness, (%) of Reported Reactions / Clinically assessed Pain or tenderness, Number of Reported Reactions / Clinically assessed Pruritis, (%) of Reported Reactions / Clinically assessed Pruritis, Number of Reported Reactions: 60 mg SQ elamipretide with or without the intervention, across all timepoints, all participants, n = 80; for Overall effect of the intervention on ISRs compared to elamipretide alone: clinical and self-assessments, 60 mg SQ elamipretide, vs Arm 1 (no intervention). As for the experimental part: (§1) • This Phase 1, open-label, 6-arm crossover study included 10 healthy subjects ≥18 and ≤65 years of age. • All subjects received 60 mg of SQ elamipretide to alternating quadrants of the abdomen on each of 6 occasions (FIG. 3), with or without the interventions listed in Table 2. • For each treatment arm, ISR clinical and self-assessments were performed pre-elamipretide administration and at 0.5, 1, 2, 4, 6, 12, 24, and 48 hours after each elamipretide dose. • Blood samples for plasma concentrations of elamipretide and its metabolites were also collected pre-dose and at 0.25, 0.5, 1, 2, 4, and 6 hours post-elamipretide dose. • Primary endpoints consisted of comparisons of the grading from the clinical assessments and the self-assessments of each ISR parameter following administration of elamipretide with each separate intervention versus that of elamipretide alone. • Secondary endpoints consisted of comparison of various pharmacokinetic (PK) parameters and adverse events following administration of elamipretide with each separate intervention versus that of elamipretide alone.
(§2) After the screening period (up to 28 days) in this phase 1, open-label, 4-week, 6-part, crossover study, all eligible subjects received 60 mg (0.75 mL) of SC elamipretide to alternating quadrants of the abdomen on each of 6 occasions, with or without potential ISR interventions. The first treatment arm (Arm 1) commenced on Day 1 with administration of elamipretide only, followed by the remaining treatment arms (Arms 2-6) with the following potential mitigations: mometasone furoate, 0.1% ointment, applied once under a hydrocolloid occlusive dressing (DuoDERM Extra Thin) 7 days prior to elamipretide administration (Arm 2); ice application at the elamipretide injection site 5 minutes pre- and post-drug administration (Arm 3); tacrolimus 0.1% ointment applied 15 minutes pre-drug dosing (Arm 4); doxepin 5% cream applied 15 minutes pre-elamipretide administration (Arm 5); and diphenhydramine 50 mg orally taken 2 hours prior to administration (Arm 6). For each treatment arm, blood samples for plasma concentrations of elamipretide and its metabolites were collected pre-dose and at 0.25, 0.5, 1, 2, 4, and 6 hours post-elamipretide dose. Vital signs were recorded pre-dose and at 0.5 and 6 hours post-elamipretide administration. ISR clinical and self-assessments were performed pre-elamipretide administration and at 0.5, 1, 2, 4, 6, 12, 24, and 48 hours after each elamipretide dose. Injection sites were photographed at 0.5, 1, 2, 4, and 12 hours post-elamipretide dose.
(§3) The primary endpoints of this study were comprised of the following efficacy measures: clinical assessments and subject self-assessments. Specifically, the primary endpoints consisted of comparisons of the grading of each ISR parameter following administration of elamipretide with each separate intervention versus the grading of each ISR parameter following administration of elamipretide alone. For clinical assessments, the clinical staff used a standard procedure adapted from the Division of Aids Table for Grading the Severity of Adult and Pediatric Adverse Events to score pain, erythema, induration, and pruritus using a 4-point scale based on severity (0=None, 1=Mild, 2=Moderate, 3=Severe, 4=Potentially Life Threatening). The self-assessments were based on a questionnaire to determine how bothered the patient was following each injection of elamipretide and included the following parameters: pain, burning sensation, cold sensation, itching, redness, swelling, and bruising.
(§4) All statistical analyses were performed using SAS GRID Linux/SAS Studio (Version 9.4, or higher). PK parameters for elamipretide and its metabolites, M1 and M2, were summarized using descriptive statistics.

Assay [2] relates to healthy subjects. Description: Phase 1 crossover study: self-assessed injection site reactions. It is filed as in vivo, human. Conditions: 60 mg SQ elamipretide with or without the intervention, across all timepoints, all participants, n = 80. As for the experimental part: as §1, §2, §3, §4
For the next assay, the target named is T1, MRGPRX2 receptor (Homo sapiens, UniProt Q96LB1).
T1 construct: host or cells: Chem-1 cells (G418-selected)
T1 sequence (Q96LB1 1-330): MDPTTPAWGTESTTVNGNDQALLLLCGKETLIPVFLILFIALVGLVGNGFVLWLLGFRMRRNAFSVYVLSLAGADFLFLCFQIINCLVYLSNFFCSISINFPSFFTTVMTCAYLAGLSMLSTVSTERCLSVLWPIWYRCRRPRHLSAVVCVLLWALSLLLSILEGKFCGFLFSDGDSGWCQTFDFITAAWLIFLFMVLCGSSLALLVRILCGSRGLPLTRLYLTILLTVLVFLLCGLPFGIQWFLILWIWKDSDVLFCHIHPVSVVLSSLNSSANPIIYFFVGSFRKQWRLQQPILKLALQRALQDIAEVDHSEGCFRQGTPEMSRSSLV
Briefly: Fluo-4 calcium assay in MRGPRX2 expressing Chem-1 cells. The class given is cell-based.

[3] abbreviates: clinical assessment, vs elamipretide alone.

As for `CN(C)CCC=C1c2ccccc2COc2ccccc21` [Doxepin], in the assay with healthy subjects [1], the “Clinically assessed Erythema or redness, (%) of Reported Reactions” value is reported as “(27.5) %”; the “Clinically assessed Erythema or redness, Number of Reported Reactions” value is given as 22; the “Clinically assessed Induration or swelling, (%) of Reported Reactions” value is recorded as “(21.3) %”; the “Clinically assessed Induration or swelling, Number of Reported Reactions” value is reported as 17. Also, in the assay with healthy subjects [1], the “Clinically assessed Pain or tenderness, (%) of Reported Reactions” value is listed as “(12.5) %”; the “Clinically assessed Pain or tenderness, Number of Reported Reactions” value is given as 10; the “Clinically assessed Pruritis, (%) of Reported Reactions” value (shortened to “Clinically assessed Pruritis, (%)”) is “(12.5) %”; the “Clinically assessed Pruritis, Number of Reported Reactions” value (shortened to “Clinically assessed Pruritis, Number”) is recorded as 10. In the assay with healthy subjects [1], the “Overall effect of the intervention on ISRs compared to elamipretide alone” value (from here on “Overall effect … compared to elamipretide alone”) is “little impact”. Further, in the assay on healthy subjects [2], the “Self-assessed Bruising, (%) of Reported Reactions” value (shortened to “Self-assessed Bruising, (%)”) is “(0.0) %”; the “Self-assessed Bruising, Number of Reported Reactions” value (“Self-assessed Bruising, Number” for short) amounted to 0; the “Self-assessed Burning sensation, (%) of Reported Reactions” value (shortened to “Self-assessed Burning sensation, (%)”) is listed as “(7.5) %”; the “Self-assessed Burning sensation, Number of Reported Reactions” value (from here on “Self-assessed Burning sensation, Number”) came out at 6. In the assay with healthy subjects [2], the “Self-assessed Cold Sensation, Number of Reported Reactions” value (“Self-assessed Cold Sensation, Number” below) was 0.0; the “Self-assessed Itching, (%) of Reported Reactions” value (“Self-assessed Itching, (%)” below) is “(12.5) %”; the “Self-assessed Itching, Number of Reported Reactions” value (from here on “Self-assessed Itching, Number”) is given as 10; the “Self-assessed Pain, (%) of Reported Reactions” value (from here on “Self-assessed Pain, (%)”) is listed as “(8.8) %”. Further, in the assay with healthy subjects [2], the “Self-assessed Pain, Number of Reported Reactions” value (“Self-assessed Pain, Number” below) is listed as 7; the “Self-assessed Redness, (%) of Reported Reactions” value (from here on “Self-assessed Redness, (%)”) was “(35.0) %”; the “Self-assessed Redness, Number of Reported Reactions” value (shortened to “Self-assessed Redness, Number”) was determined as 28; the “Self-assessed Swelling, (%) of Reported Reactions” value (shortened to “Self-assessed Swelling, (%)”) is “(21.3) %”. In addition, in the assay on healthy subjects [2], the “Self-assessed Swelling, Number of Reported Reactions” value (“Self-assessed Swelling, Number” for short) was determined as 17.
Take `C[C@@H]1C[C@H]2[C@@H]3CCC4=CC(=O)C=C[C@]4(C)[C@@]3(Cl)[C@@H](O)C[C@]2(C)[C@@]1(OC(=O)c1ccco1)C(=O)CCl` [Mometasone furoate]: in the assay on healthy subjects [1], the “Clinically assessed Erythema or redness, (%) of Reported Reactions” value is “(37.5) %”; the “Clinically assessed Erythema or redness, Number of Reported Reactions” value amounted to 30; the “Clinically assessed Induration or swelling, (%) of Reported Reactions” value is recorded as “(10.0) %”; the “Clinically assessed Induration or swelling, Number of Reported Reactions” value was determined as 8. In the assay on healthy subjects [1], the “Clinically assessed Pain or tenderness, (%) of Reported Reactions” value is “(8.8) %”; the “Clinically assessed Pain or tenderness, Number of Reported Reactions” value stood at 7; the “Clinically assessed Pruritis, (%)” value is given as “(2.5) %”; the “Clinically assessed Pruritis, Number” value is given as 2. For the same molecule, the “Overall effect … compared to elamipretide alone” value in the assay with healthy subjects [1] is “most reduced; also recorded: favorably mitigate”. In addition, the “Overall effect … compared to elamipretide alone” value with healthy subjects [1] (listed as mometasone furoate ointment) is listed as “Improvement”. In addition, in the assay on healthy subjects [1] (setting [3]), the “incidence of induration at 0.5 hours post-elamipretide dose” value is listed as “significantly reduced incidence”, the “incidence of induration at 1 hour post-elamipretide dose” value was “Trends to significance in reduction” and the “pruritus at 0.5 hours post-dose” value is listed as “Trends to significance in reduction”. In the assay on healthy subjects [2], the “Self-assessed Bruising, (%)” value is “(1.3) %”; the “Self-assessed Bruising, Number” value was 1; the “Self-assessed Burning sensation, (%)” value is given as “(8.8) %”; the “Self-assessed Burning sensation, Number” value is reported as 7. Moreover, in the assay on healthy subjects [2], the “Self-assessed Cold Sensation, Number” value came out at 0.0; the “Self-assessed Itching, (%)” value is on record as “(6.3) %”; the “Self-assessed Itching, Number” value was found to be 5; the “Self-assessed Pain, (%)” value is “(8.8) %”. Further, in the assay with healthy subjects [2], the “Self-assessed Pain, Number” value was 7; the “Self-assessed Redness, (%)” value was “(41.3) %”; the “Self-assessed Redness, Number” value is listed as 33; the “Self-assessed Swelling, (%)” value was “(11.3) %”. Further, in the assay with healthy subjects [2], the “Self-assessed Swelling, Number” value is reported as 9.
Regarding `C=CC[C@@H]1/C=C(\C)C[C@H](C)C[C@H](OC)[C@H]2O[C@@](O)(C(=O)C(=O)N3CCCC[C@H]3C(=O)O[C@H](/C(C)=C/[C@@H]3CC[C@@H](O)[C@H](OC)C3)[C@H](C)[C@@H](O)CC1=O)[C@H](C)C[C@@H]2OC` [Tacrolimus], in the assay on healthy subjects [1], the “Clinically assessed Erythema or redness, (%) of Reported Reactions” value is listed as “(31.3) %”; the “Clinically assessed Erythema or redness, Number of Reported Reactions” value came to 25; the “Clinically assessed Induration or swelling, (%) of Reported Reactions” value is given as “(22.5) %”; the “Clinically assessed Induration or swelling, Number of Reported Reactions” value is given as 18. Moreover, in the assay with healthy subjects [1], the “Clinically assessed Pain or tenderness, (%) of Reported Reactions” value is “(3.8) %”; the “Clinically assessed Pain or tenderness, Number of Reported Reactions” value came out at 3; the “Clinically assessed Pruritis, (%)” value is recorded as “(15.0) %”; the “Clinically assessed Pruritis, Number” value is listed as 12. Moreover, the “Overall effect … compared to elamipretide alone” value in the assay on healthy subjects [1] was “little impact”. The “Overall effect … compared to elamipretide alone” value in the assay on healthy subjects [1] (listed as tacrolimus) was “most reduced”. The “Overall effect … compared to elamipretide alone” value in the assay on healthy subjects [1] (listed as tacrolimus ointment) is recorded as “Improvement”. Moreover, in the assay with healthy subjects [2], the “Self-assessed Bruising, (%)” value is listed as “(10.0) %”; the “Self-assessed Bruising, Number” value is reported as 8; the “Self-assessed Burning sensation, (%)” value was “(1.3) %”; the “Self-assessed Burning sensation, Number” value turned out to be 1. Also, in the assay with healthy subjects [2], the “Self-assessed Cold Sensation, Number” value amounted to 0.0; the “Self-assessed Itching, (%)” value was “(15.0) %”; the “Self-assessed Itching, Number” value is 12; the “Self-assessed Pain, (%)” value is on record as “(3.8) %”. For the same molecule, in the assay with healthy subjects [2], the “Self-assessed Pain, Number” value was determined as 3; the “Self-assessed Redness, (%)” value is given as “(25.0) %”; the “Self-assessed Redness, Number” value amounted to 20; the “Self-assessed Swelling, (%)” value is “(18.8) %”. Also, the “Self-assessed Swelling, Number” value in the assay on healthy subjects [2] was determined as 15.
As for `CCNC(=O)[C@@H]1CCCN1C(=O)[C@H](CCCNC(=N)N)NC(=O)[C@H](CC(C)C)NC(=O)[C@@H](CC(C)C)NC(=O)[C@H](Cc1ccc(O)cc1)NC(=O)[C@H](CO)NC(=O)[C@H](Cc1c[nH]c2ccccc12)NC(=O)[C@H](Cc1c[nH]cn1)NC(=O)[C@@H]1CCC(=O)N1` [leuprolide], at MRGPRX2 receptor (Chem-1 cells, Fluo-4), the “activation of the MRGPRX2 expressing cells (calcium mobilization)” value is listed as “dose dependent activation”.
As to `O=c1c(O)c(-c2ccc(O)c(O)c2)oc2cc(O)cc(O)c12` [quercetin, 3,3′,4′,5,7-pentahydroxyflavone], at MRGPRX2 receptor (100 μM of elamipretide, various concentrations of quercetin), the “inhibition of the activation of the MRGPRX2 receptor caused by elamipretide” value was “in a dose-dependent manner, inhibit the activation; also recorded: inhibits activation of MRGPRX2”.
